The results in this text go back to PMC12068008 (International Journal of Molecular Sciences, 2024).

Several values for one entry are separate records, joined by “and”; a condition that tells them apart may be missing. Identical values can stand only once.

One series relates to MRC-5 cells. The series is described as follows: SRB assay, MRC-5 cells. In kind it is cell-based. As to conditions: Homo sapiens, MRC5; 72 h after treatment, SRB; read-out: IC50 MRC. The method, then: Two human breast cancer cell lines, MDA-MB-231 (HTB-26) and MDA-MB-468 (HTB-132), human cervical cancer cell line HeLa (CCL-2), and MRC-5 (CCL-171) fibroblasts were purchased from the American Type Culture Collection (ATCC, Manassas, VA, USA). All cell lines were cultured in Dulbecco’s Modified Eagle’s Medium (DMEM) with 4500 mg/L glucose and L-glutamine (Capricorn Scientific, Ebsdorfergrund, Germany), supplemented with 10% foetal bovine serum (PAN-Biotech, Aidenbach, Germany), 10,000 U/mL penicillin, and 10 mg/mL streptomycin solution (Capricorn Scientific) under standard conditions at 37 °C in a humidified 5% CO2 atmosphere (ESCO, Lifesciences Group, Singapore).
Cells were seeded on a 96-well plate (Thermo Fisher Scientific, Waltham, MA, USA) at 2 × 10^3 cells per well in DMEM medium. For the analysis of the concentration- and time-dependent effect of the analysed compounds, cell monolayers were treated 24 h after seeding with concentrations 1 × 10^−6, 1 × 10^−5, and 1 × 10^−4 M for 24, 48, or 72 h. Cell viability was detected using sulforhodamine B (SRB) assay, based on the staining of cellular proteins. The assay was performed according to the procedure described by Skehan et al.. The cells were fixed with 10% trichloroacetic acid (TCA, CARLO ERBA Reagents GmbH, Emmendingen, Germany) for 1 h at 4 °C, washed with water, and stained for 15 min with 0.4% SRB (Sigma-Aldrich Chemie GmbH, Steinheim, Germany) in 1% acetic acid. The unbound SRB dye was rinsed with 1% acetic acid, while the protein-bound dye was extracted with a 10 mM Tris base (Sigma-Aldrich). The absorbance was measured at 550 nm with a reference wavelength of 690 nm in a microplate reader (Wallac, VICTOR2 1420 Multilabel counter, PerkinElmer, Turku, Finland). The results were expressed as a percentage of the control, where the cell growth of the control is set to 100%. […] The selectivity index (SI) was determined according to the following formula:(2) SI=IC50 for fibroblast cell line/IC50 for tumour cell line […]
In general terms: The SRB assay estimates cell density from bound dye.

The test system of another series is HeLa cells. The series can be described thus: SRB assay, HeLa cells. The class given is cell-based. The following applies: for Viability of HeLa cells: % of control, concentrations 1 × 10^−6 to 1 × 10^−4 M (not assigned to the values for 2a); for IC50: Homo sapiens, HeLa, 72 h after treatment, SRB, read-out: IC50 HeLa. The method, then: All cell lines were cultured in Dulbecco’s Modified Eagle’s Medium (DMEM) with 4500 mg/L glucose and L-glutamine (Capricorn Scientific, Ebsdorfergrund, Germany), supplemented with 10% foetal bovine serum (PAN-Biotech, Aidenbach, Germany), 10,000 U/mL penicillin, and 10 mg/mL streptomycin solution (Capricorn Scientific) under standard conditions at 37 °C in a humidified 5% CO2 atmosphere (ESCO, Lifesciences Group, Singapore).
Cells were seeded on a 96-well plate (Thermo Fisher Scientific, Waltham, MA, USA) at 2 × 10^3 cells per well in DMEM medium. For the analysis of the concentration- and time-dependent effect of the analysed compounds, cell monolayers were treated 24 h after seeding with concentrations 1 × 10^−6, 1 × 10^−5, and 1 × 10^−4 M for 24, 48, or 72 h. Cell viability was detected using sulforhodamine B (SRB) assay, based on the staining of cellular proteins. The assay was performed according to the procedure described by Skehan et al.. The cells were fixed with 10% trichloroacetic acid (TCA, CARLO ERBA Reagents GmbH, Emmendingen, Germany) for 1 h at 4 °C, washed with water, and stained for 15 min with 0.4% SRB (Sigma-Aldrich Chemie GmbH, Steinheim, Germany) in 1% acetic acid. The unbound SRB dye was rinsed with 1% acetic acid, while the protein-bound dye was extracted with a 10 mM Tris base (Sigma-Aldrich). […] The results were expressed as a percentage of the control, where the cell growth of the control is set to 100%. […] The selectivity index (SI) was determined according to the following formula:(2) SI=IC50 for fibroblast cell line/IC50 for tumour cell line
The assay was performed two times in 4 replicates for every experimental group. The statistical significance of differences between treated and untreated cells was estimated by the independent Student’s t-test, with the level of significance set at p < 0.05.

For another series, the target named is Na^+, K^+-ATPase. The series is described as follows: Na+,K+-ATPase assay (orthophosphate release). In kind it is biochemical, porcine. The protocol:
Na^+, K^+-ATPase activity was assessed using a modified version of the method by Seals et al., based on measuring the change in orthophosphate concentration released during ATP hydrolysis. The incubation mixture was prepared at 50 mM TRIS-HCl (pH 7.4), containing 5 mM MgCl2, 100 mM NaCl, 20 mM KCl, 25 μL of 5mg/mL commercial enzyme solution, and 20 μL of an inhibitor solution at a certain concentration. After preincubating the mixture for 10 min at 37 °C, the reaction was initiated by adding 20 μL of 20 mM ATP. The reaction proceeded for 10 min at 37 °C before being terminated by adding 22 μL of 3 M cold perchloric acid, with the tube then placed on ice. In the blank sample, the incubation mixture contained only TRIS buffer (pH 7.4) without MgCl2, NaCl, or KCl. The reaction volume was adjusted to a final volume of 200 μL, after which 4.5 mL of water was added. Released orthophosphate was quantified using a colorimetric reaction with 200 μL of 0.2 M ammonium molybdate in 30% sulfuric acid and one drop of 2.5% SnCl2 in glycerol. Total ATPase activity was determined by measuring the absorbance of solution at 690 nm. Enzyme activity was expressed as relative enzyme activity (REA), defined as the percentage of Na^+, K^+-ATPase activity remaining in comparison to samples without inhibitor (control activity).

With `O=c1c(O)c(-c2ccc(O)c(O)c2)oc2c(CN3CCc4ccccc4C3)c(O)cc(O)c12` [Compound 2a], the results for the IC50 in the series on MRC-5 cells and with HeLa cells were 55.7 ± 2.78 µM and 53.5 ± 2.67 µM, respectively. Moreover, the “Viability of HeLa cells” value was 43% and 37% in the series with HeLa cells (48 h); 35% and 29% with HeLa cells (72 h).

Turning to `COc1cc2c(cc1OC)CN(Cc1c(O)cc(O)c3c(=O)c(O)c(-c4ccc(O)c(O)c4)oc13)CC2` [Compound 2b], the IC50 (in general, the concentration at which inhibition is half-maximal) at Na^+, K^+-ATPase (37 °C) amounted to 0.97 µM; in the series on MRC-5 cells, 16.6 ± 0.83 µM; with HeLa cells, 19.5 ± 0.97 µM. For the same compound, the “Percentage Inhibition Na^+, K^+-ATPase” value in the series with Na^+, K^+-ATPase (at 1 × 10^−4 M, 37 °C) was determined as 100%. In addition, in the series with Na^+, K^+-ATPase (versus quercetin), the “fold decrease in IC50 toward Na^+, K^+-ATPase compared to bare quercetin” value is 50 fold.
